Measurements from BindingDB's records for doi:10.1016/j.bmcl.2016.12.057 (University of Auckland, 2017).

Assay: Inhibition of recombinant perforin (unknown origin) assessed as decrease in lysis of 51Cr-labelled human Jurkat cells by measuring 51Cr release preincubated for 30 mins followed by cell line addition measured after 4 hrs in presence of 0.1% BSA by gamma counting method

IC50	Compound
> 20 µM	CC1c2cc(-c3ccc(-c4cncc(NS(=O)(=O)c5ccc(F)cc5F)c4)s3)ccc2C(=O)N1C (stereo not given)
> 20 µM	O=C1NCCc2ccc(-c3ccc(-c4cncc(NS(=O)(=O)c5ccc(F)cc5F)c4)s3)cc21
> 20 µM	O=C1NCCc2cc(-c3ccc(-c4cncc(NS(=O)(=O)c5ccc(F)cc5F)c4)s3)ccc21
> 20 µM	CN1Cc2cc(-c3nc(-c4cncc(NS(=O)(=O)c5ccc(F)cc5F)c4)cs3)ccc2C1=O
> 20 µM	CN1CCc2cc(-c3ccc(-c4cncc(NS(=O)(=O)c5ccc(F)cc5F)c4)s3)ccc2C1=O
